# Assay results taken from PMC11783601, “Analogue-Sensitive Inhibition of Histone Demethylases Uncovers Member-Specific Function in Ribosomal Protein Synthesis” (Journal of the American Chemical Society, 2025).
# Values joined by “and” are separate entries in the source; they are usually repeats but may differ in a detail not shown here. Equal entries are not always repeated.
# Target: T1, KDM4A F185A (asKDM4A) in HEK293T cells (Homo sapiens, UniProt O75164, F185A)
# T1 construct: we generated the F185A mutation in full-length KDM4A carrying all of the functional domains; host or cells: HEK293T
# T1 sequence (O75164 1-1064 F185A): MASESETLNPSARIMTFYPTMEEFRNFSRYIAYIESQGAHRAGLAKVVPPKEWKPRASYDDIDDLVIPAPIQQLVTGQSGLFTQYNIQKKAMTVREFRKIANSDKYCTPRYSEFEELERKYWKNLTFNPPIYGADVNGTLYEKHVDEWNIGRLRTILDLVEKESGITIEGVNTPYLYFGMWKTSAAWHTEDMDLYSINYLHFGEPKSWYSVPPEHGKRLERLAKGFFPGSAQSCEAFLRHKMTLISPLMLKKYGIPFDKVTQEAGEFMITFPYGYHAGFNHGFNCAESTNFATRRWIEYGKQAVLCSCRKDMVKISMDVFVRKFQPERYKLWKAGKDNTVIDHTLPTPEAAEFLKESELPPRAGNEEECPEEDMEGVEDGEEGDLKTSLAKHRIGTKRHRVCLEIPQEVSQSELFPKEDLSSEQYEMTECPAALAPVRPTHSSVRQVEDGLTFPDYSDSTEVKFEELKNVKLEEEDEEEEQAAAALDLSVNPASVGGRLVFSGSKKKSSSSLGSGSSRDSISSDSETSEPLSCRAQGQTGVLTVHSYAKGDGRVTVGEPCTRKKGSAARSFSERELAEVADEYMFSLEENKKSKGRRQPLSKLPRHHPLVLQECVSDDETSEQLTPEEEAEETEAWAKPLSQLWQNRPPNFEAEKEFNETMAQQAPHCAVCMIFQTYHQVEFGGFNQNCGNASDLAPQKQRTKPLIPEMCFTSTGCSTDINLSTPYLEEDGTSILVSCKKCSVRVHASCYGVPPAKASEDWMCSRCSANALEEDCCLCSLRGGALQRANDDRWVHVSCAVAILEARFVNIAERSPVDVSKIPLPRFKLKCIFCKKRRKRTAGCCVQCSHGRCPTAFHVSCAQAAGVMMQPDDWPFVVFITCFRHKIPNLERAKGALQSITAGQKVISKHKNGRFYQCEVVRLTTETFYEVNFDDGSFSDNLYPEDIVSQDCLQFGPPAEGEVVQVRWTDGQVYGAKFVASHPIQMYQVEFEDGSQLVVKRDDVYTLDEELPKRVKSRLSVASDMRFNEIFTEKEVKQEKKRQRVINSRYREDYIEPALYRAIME
# Experiment: Histone extraction, digestion and tandem mass spectrometry (relative abundance of histone modifications)
# Assay type: cell-based
# Protocol: HEK293T cells were transiently transfected with asKDM4A and treated with varying concentrations of 6A or 6B. […] To further confirm the activity of the enzyme–inhibitor pair, we performed tandem mass spectrometry of tryptic histones isolated from HEK293T cells expressing asKDM4A in the presence or absence of 100 μM 6A. […]
# 22. Histone extraction, digestion and tandem mass spectrometry
# HEK 293-T cells (ATCC CRL-1573) were plated into 6-well plates (Corning) in DMEM (Corning) supplemented with 10% FBS (Corning) and 1X Antibiotic/Antimycin
# (Penicillin/Streptomycin/Fungiozone) (Cytiva HyClone) in an incubator held at 37 °C with 5%
# CO2. At 75% confluency, cells were transfected with 2.5 µg KDM4A F185A or Empty Vector with 5µg Thermo Turbofect (FERR0531). After 4 hours, the media was washed and 200 µM of 6A or equivalent volume of DMSO was added and left to incubate at 37 °C for 24 hours. Cells were then washed with 1X PBS (Corning) followed by trypsinization (Gibco TrypLE™ Express Enzyme). Collected cells were centrifuged at 3000xg for 3 minutes, followed by washing with 1X PBS and centrifuged for an additional 3000xg for 3 minutes. Histone proteins were extracted from the pellet as described by25 to ensure good-quality identification and quantification of single histone marks. Briefly, cell pellets were dissolved in 100 µL of cold 0.2 M H2SO4 and incubated for 2 hours rotating in a cold room (4 °C). Aliquots were then centrifuged at 3400xg for 5 minutes […]
# at 4 °C and the supernatant was added to a fresh tube. 100% cold TCA was then added to a final volume of 33% volume/volume TCA/supernatant and left to incubate for 1 hour in a cold room (4 °C). Samples were then centrifuged at 3400xg for 5 min at 4 °C and the supernatant was discarded. The precipitate was then washed with cold acetone/0.1% HCl and centrifuged at 3400xg for 5 minutes at 4 °C. The supernatant was discarded, and the precipitate was washed with cold acetone and centrifuged at 3400xg for 5 minutes at 4 °C. The supernatant was discarded, and the pellet was dried using a vacuum centrifuge.
# The pellet was dissolved in 50 mM ammonium bicarbonate, pH 8.0, and histones were subjected to derivatization using 5 µL of propionic anhydride and 14 µL of ammonium hydroxide (all Sigma Aldrich) to balance the pH at 8.0. The mixture was incubated for 15 min and the procedure was repeated. Histones were then digested with 1 µg of sequencing grade trypsin (Promega) diluted in 50mM ammonium bicarbonate (1:20, enzyme:sample) overnight at room temperature.
# Derivatization reaction was repeated to derivatize peptide N-termini. The samples were dried in a […]
# Sample desalting: Prior to mass spectrometry analysis, samples were desalted using a 96-well plate filter (Orochem) packed with 1 mg of Oasis HLB C-18 resin (Waters). Briefly, the samples were resuspended in 100 µl of 0.1% TFA and loaded onto the HLB resin, which was previously equilibrated using 100 µl of the same buffer. After washing with 100 µl of 0.1% TFA, the samples were eluted with a buffer containing 70 µl of 60% acetonitrile and 0.1% TFA and then dried in a […]
# LC-MS/MS Acquisition and Analysis: Samples were resuspended in 10 µl of 0.1% TFA and loaded onto a Dionex RSLC […] (Thermo Scientific), coupled online with an Orbitrap Fusion Lumos (Thermo Scientific). Chromatographic separation was performed with a two-column system, consisting of a C-18 trap cartridge (300 µm ID, 5 mm length) and a picofrit analytical column (75 µm ID, 25 cm length) packed in-house with reversed-phase Repro-Sil Pur C18-AQ 3 µm resin. Peptides were separated using a 30 min gradient from 1-30% buffer B (buffer A: 0.1% formic acid, buffer B: 80% acetonitrile + 0.1% formic acid) at a flow rate of 300 nl/min.
# The mass spectrometer was set to acquire spectra in a data-independent acquisition (DIA) mode.
# [1] = 6A-treated samples, replicates _1 and _2
# [2] = H1 variant peptide, samples 6A_1, 6A_2
# [3] = HEK293T cells expressing asKDM4A, 100 μM 6A, LC-MS/MS, n = 2
# [4] = HEK293T cells, KDM4A F185A + 6A, replicates 6A_1 and 6A_2
structure (smiles),measurement,setting,value
"CCCCCCCCOC(=O)C(=O)NC(CC(C)C)C(=O)O [6A, L-Leu octyl-ester NOG]",Single marks H3K4ac,[1],1e-6 and 0.002004
same,Single marks H3K4me1,[1],0.1039 and 0.09374
same,Single marks H3K4me2,[1],0.002434 and 0.008819
same,Single marks H3K4me3,[1],9e-6 and 0.003387
same,Single marks H3K9ac,[1],0.003245 and 0.006938
same,Single marks H3K9me1,[1],0.2368 and 0.08817
same,Single marks H3K9me2,[1],0.4213 and 0.4856
same,Single marks H3K9me3,[1],0.1855
same,Single marks H3K14ac,[1],0.4176 and 0.5798
same,Single marks H3K18ac,[1],0.008957 and 0.006562
same,Single marks H3K18me1,[1],0 and 1.2e-5
same,Single marks H3K23ac,[1],0.5125 and 0.4435
same,Single marks H3K23me1,[1],0 and 5e-6
same,Single marks H3K56ac,[1],0
same,Single marks H3K56me1,[1],0 and 0.9736
same,Single marks H3K56me2,[1],0
same,Single marks H3K56me3,[1],0
same,Single marks H3K79ac,[1],0
same,Single marks H3K79me1,[1],0.3484 and 0.03322
same,Single marks H3K79me2,[1],0.33 and 0.01715
same,Single marks H3K79me3,[1],0.04582 and 0
same,Single marks H3K122ac,[1],0.5896 and 0
same,Single marks H3S10ph,[1],0.08584 and 0.005059
same,Single marks H4K5ac,[1],0.04104 and 0.1648
same,Single marks H4K8ac,[1],0.05131 and 0.1596
same,Single marks H4K12ac,[1],0.09119 and 0.2668
same,Single marks H4K16ac,[1],0.3167 and 0.492
same,Single marks H4K20ac,[1],0.00298 and 0.01255
same,Single marks H4K20me1,[1],0.4844 and 0.3612
same,Single marks H4K20me2,[1],0.1012 and 0.2416
same,Single marks H4K20me3,[1],0.03481 and 0.03641
same,Single marks H31K27ac,[1],0.000296 and 0
same,Single marks H31K27me1,[1],0.18 and 0.1869
same,Single marks H31K27me2,[1],0.4707 and 0.5161
same,Single marks H31K27me3,[1],0.189 and 0.1409
same,Single marks H31K36me1,[1],0.204 and 0.1649
same,Single marks H31K36me2,[1],0.3714 and 0.4932
same,Single marks H31K36me3,[1],0.07097 and 0.06279
same,Single marks H33K27ac,[1],6.9e-5 and 0
same,Single marks H33K27me1,[1],0.2147 and 0.2058
same,Single marks H33K27me2,[1],0.4693 and 0.4746
same,Single marks H33K27me3,[1],0.1187 and 0.09838
same,Single marks H33K36me1,[1],0.2345 and 0.1564
same,Single marks H33K36me2,[1],0.4525 and 0.5384
same,Single marks H33K36me3,[1],0.03679 and 0.06963
same,"Relative abundance, H1_1_35 H11.SETAPVAQAASTATEKPAAAKKTKKPAKAAAPR",[2],0.0%
same,"Relative abundance, H1_1_35 H13.SETAPAAPAAPAPVEKTPVKKKAKKTGAAAGKR",[2],0.0%
same,"Relative abundance, H1_1_35 H15.SETAPAETAAPAPVEKSPAKKKTTKKAGAAKR",[2],0.0%
same,"Relative abundance, H1_54_81 H1v234.SGVSLAALKKALAAAGYDVEKNNSR",[2],100.0% and 65.9%
same,"Relative abundance, H1_54_81 H11.SGVSLAALKKSLAAAGYDVEKNNSR",[2],0.0%
same,"Relative abundance, H1_54_81 H15.GGVSLPALKKALAAGGYDVEKNNSR",[2],0.0%
same,relative abundance of other key histone methylation and acetylation sites,"HEK293T cells expressing asKDM4A, 100 μM 6A, LC-MS/MS",remained unaffected
same,relative abundance of H3K9me3,[3],recovered to the level of the control vector
same,relative abundance of H3K36me3,[3],recovered to the level of the control vector
same,Relative abundance AKAKSR(H2A3_12_17) (peptide total),[4],100.0%
same,Relative abundance AKAKTR(H2A1_12_17) (peptide total),[4],100.0%
same,Relative abundance DNKKTR(H2A1_72_77) (peptide total),[4],100.0%
same,Relative abundance H2A1_12_17 K13ac,[4],0.0152% and 0.527%
same,Relative abundance H2A1_12_17 K13acK15ac,[4],0.0603% and 0.3%
same,Relative abundance H2A1_12_17 K13me1,[4],1.8% and 5.0%
same,Relative abundance H2A1_12_17 K15ac,[4],15.2% and 32.5%
same,Relative abundance H2A1_12_17 K15me1,[4],4.8% and 11.0%
same,Relative abundance H2A1_12_17 unmod,[4],78.1% and 50.7%
same,Relative abundance H2A1_72_77 K74ac,[4],0.0186% and 0.272%
same,Relative abundance H2A1_72_77 unmod,[4],100.0% and 99.7%
same,Relative abundance H2A3_12_17 K13ac,[4],0.023% and 0.0778%
same,Relative abundance H2A3_12_17 K13acK15ac,[4],0.0187% and 0.4%
same,Relative abundance H2A3_12_17 K13me1,[4],11.1% and 15.7%
same,Relative abundance H2A3_12_17 K15ac,[4],0.0415% and 0.131%
same,Relative abundance H2A3_12_17 K15me1,[4],72.5% and 57.2%
same,Relative abundance H2A3_12_17 unmod,[4],16.3% and 26.5%
same,Relative abundance H2AZ_1_19 K4acK7acK11ac,[4],0.0%
same,Relative abundance H2AZ_1_19 K4acK7acK11acK15ac,[4],1.0% and 0.641%
same,Relative abundance H2A_1_88 H2A14s.HLQLAIR,[4],85.1% and 95.1%
same,Relative abundance H2A_1_88 H2AX.GKTGGKAR,[4],1.9% and 1.0%
same,Relative abundance H2A_1_88 H2AZ.AGGKAGKDSGKAKTKAVSR,[4],13.0% and 3.9%
